# Legend:
# Experiment in all cases: Test D controlled growth environment herbicide test, pre- and postemergence
# Format in all cases: in vivo
# [1] = system: buckwheat, wild (wild buckwheat, Polygonum convolvulus)
# Outline: (§1)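 Species sown in silt loam and sprayed preemergence, or grown in peat-based medium to 2–18 cm (1- to 4-leaf stage) and sprayed postemergence, with compounds in non-phytotoxic solvent plus surfactant. Visual injury scored versus controls after 14–21 d in a controlled environment, 0 (no effect) to 100 (complete control).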
# [2] = system: speedwell (bird's-eye speedwell, Veronica persica)
# Outline: as §1
# [3] = system: deadnettle (henbit deadnettle, Lamium amplexicaule)
# Outline: as §1
# [4] = system: field violet (Viola arvensis)
# Outline: as §1
# [5] = system: oilseed rape (Brassica napus)
# Outline: as §1
# [6] = system: ryegrass, Italian (Italian ryegrass, Lolium multiflorum)
# Outline: as §1
# [7] = system: kochia (Kochia scoparia)
# Outline: as §1
# [8] = system: radish, wild (wild radish, Raphanus raphanistrum)
# Outline: as §1
# [9] = system: galium (catchweed bedstraw, Galium aparine)
# Outline: as §1
# [10] = system: canarygrass (Phalaris minor)
# Outline: as §1
# [11] = system: bluegrass (annual bluegrass, Poa annua)
# Outline: as §1
# [12] = system: barley, spring (spring barley, Hordeum vulgare)
# Outline: as §1
# [13] = system: Russian thistle (Salsola kali)
# Outline: as §1
# [14] = Postemergence, 31 g ai/ha, scale 0 to 100 (0 no effect, 100 complete control)
# [15] = Postemergence, 125 g ai/ha, visual rating on scale 0 (no effect) to 100 (complete control), 14 to 21 d
# [16] = Postemergence, 250 g ai/ha, scale 0 to 100 (0 no effect, 100 complete control)
# [17] = Preemergence, 62 g ai/ha, scale 0 to 100 (0 no effect, 100 complete control)
# [18] = Preemergence, 125 g ai/ha, scale 0 to 100 (0 no effect, 100 complete control)
# [19] = Preemergence, 250 g ai/ha, scale 0 to 100, 0 no effect, 100 complete control
# [20] = postemergence, 62 g ai/ha, scale 0 to 100, 0 no effect, 100 complete control
compound,measurement,setting,value
Cc1ccc2sc(Br)c(-c3c(O)c(C)nn(C)c3=O)c2c1 [Compound 79],"Buckwheat, Wild plant response rating",[1]; [14],70
same,"Plant response rating, Buckwheat, Wild",[1]; [15],100
same,"Plant response rating, Buckwheat, Wild",[1]; [16],100
same,"Plant response rating (scale of 0 to 100), Buckwheat, Wild","[1]; Preemergence, 31 g ai/ha",0
same,"Plant response rating, Buckwheat, Wild",[1]; [17],90
same,"Plant response rating, Buckwheat, Wild",[1]; [18],25
same,"Plant response rating, Buckwheat, Wild",[1]; [19],100
same,"Plant response rating, Buckwheat, Wild",[1]; [20],100
same,Speedwell plant response rating,[2]; [14],25
same,"Plant response rating, Speedwell",[2]; [15],35
same,"Plant response rating, Speedwell",[2]; [16],65
same,"Plant response rating, Speedwell",[2]; [20],30
same,Deadnettle plant response rating,[3]; [14],5
same,"Plant response rating, Deadnettle",[3]; [15],20
same,"Plant response rating, Deadnettle",[3]; [16],40
same,"Plant response rating (scale of 0 to 100), Deadnettle","[3]; Preemergence, 31 g ai/ha",0
same,"Plant response rating, Deadnettle",[3]; [17],10
same,"Plant response rating, Deadnettle",[3]; [18],100
same,"Plant response rating, Deadnettle",[3]; [19],90
same,"Plant response rating, Deadnettle",[3]; [20],15
same,Field Violet plant response rating,[4]; [14],75
same,"Plant response rating, Field Violet",[4]; [15],85
same,"Plant response rating, Field Violet",[4]; [16],95
same,"Plant response rating (scale of 0 to 100), Field Violet","[4]; Preemergence, 31 g ai/ha",80
same,"Plant response rating, Field Violet",[4]; [17],85
same,"Plant response rating, Field Violet",[4]; [18],98
same,"Plant response rating, Field Violet",[4]; [19],100
same,"Plant response rating, Field Violet",[4]; [20],75
same,Oilseed Rape plant response rating,[5]; [14],0
same,"Plant response rating, Oilseed Rape",[5]; [15],20
same,"Plant response rating, Oilseed Rape",[5]; [16],30
same,"Plant response rating (scale of 0 to 100), Oilseed Rape","[5]; Preemergence, 31 g ai/ha",25
same,"Plant response rating, Oilseed Rape",[5]; [17],35
same,"Plant response rating, Oilseed Rape",[5]; [18],40
same,"Plant response rating, Oilseed Rape",[5]; [19],35
same,"Plant response rating, Oilseed Rape",[5]; [20],5
same,"Ryegrass, Italian plant response rating",[6]; [14],70
same,"Plant response rating, Ryegrass, Italian",[6]; [15],85
same,"Plant response rating, Ryegrass, Italian",[6]; [16],90
same,"Plant response rating (scale of 0 to 100), Ryegrass, Italian","[6]; Preemergence, 31 g ai/ha",80
same,"Plant response rating, Ryegrass, Italian",[6]; [17],85
same,"Plant response rating, Ryegrass, Italian",[6]; [18],90
same,"Plant response rating, Ryegrass, Italian",[6]; [19],100
same,"Plant response rating, Ryegrass, Italian",[6]; [20],75
same,Kochia plant response rating,[7]; [14],70
same,"Plant response rating, Kochia",[7]; [15],85
same,"Plant response rating, Kochia",[7]; [16],95
same,"Plant response rating (scale of 0 to 100), Kochia","[7]; Preemergence, 31 g ai/ha",60
same,"Plant response rating, Kochia",[7]; [17],55
same,"Plant response rating, Kochia",[7]; [18],100
same,"Plant response rating, Kochia",[7]; [19],95
same,"Plant response rating, Kochia",[7]; [20],80
same,"Radish, Wild plant response rating",[8]; [14],0
same,"Plant response rating, Radish, Wild",[8]; [15],0
same,"Plant response rating, Radish, Wild",[8]; [16],65
same,"Plant response rating (scale of 0 to 100), Radish, Wild","[8]; Preemergence, 31 g ai/ha",25
same,"Plant response rating, Radish, Wild",[8]; [17],25
same,"Plant response rating, Radish, Wild",[8]; [18],45
same,"Plant response rating, Radish, Wild",[8]; [19],55
same,"Plant response rating, Radish, Wild",[8]; [20],0
same,Galium plant response rating,[9]; [14],95
same,"Plant response rating, Galium",[9]; [15],100
same,"Plant response rating, Galium",[9]; [16],100
same,"Plant response rating (scale of 0 to 100), Galium","[9]; Preemergence, 31 g ai/ha",80
same,"Plant response rating, Galium",[9]; [17],90
same,"Plant response rating, Galium",[9]; [18],100
same,"Plant response rating, Galium",[9]; [19],100
same,"Plant response rating, Galium",[9]; [20],100
same,Canarygrass plant response rating,[10]; [14],5
same,"Plant response rating, Canarygrass",[10]; [15],40
same,"Plant response rating, Canarygrass",[10]; [16],45
same,"Plant response rating (scale of 0 to 100), Canarygrass","[10]; Preemergence, 31 g ai/ha",45
same,"Plant response rating, Canarygrass",[10]; [17],60
same,"Plant response rating, Canarygrass",[10]; [18],75
same,"Plant response rating, Canarygrass",[10]; [19],85
same,"Plant response rating, Canarygrass",[10]; [20],20
same,Bluegrass plant response rating,[11]; [14],5
same,"Plant response rating, Bluegrass",[11]; [15],10
same,"Plant response rating, Bluegrass",[11]; [16],15
same,"Plant response rating (scale of 0 to 100), Bluegrass","[11]; Preemergence, 31 g ai/ha",10
same,"Plant response rating, Bluegrass",[11]; [17],10
same,"Plant response rating, Bluegrass",[11]; [18],25
same,"Plant response rating, Bluegrass",[11]; [19],35
same,"Plant response rating, Bluegrass",[11]; [20],10
same,"Barley, Spring plant response rating",[12]; [14],0
same,"Plant response rating, Barley, Spring",[12]; [15],5
same,"Plant response rating, Barley, Spring",[12]; [16],10
same,"Plant response rating (scale of 0 to 100), Barley, Spring","[12]; Preemergence, 31 g ai/ha",0
same,"Plant response rating, Barley, Spring",[12]; [17],0
same,"Plant response rating, Barley, Spring",[12]; [18],0
same,"Plant response rating, Barley, Spring",[12]; [19],0
same,"Plant response rating, Barley, Spring",[12]; [20],5
same,Russian Thistle plant response rating,[13]; [14],50
same,"Plant response rating, Russian Thistle",[13]; [15],55
same,"Plant response rating, Russian Thistle",[13]; [16],65
same,"Plant response rating (scale of 0 to 100), Russian Thistle","[13]; Preemergence, 31 g ai/ha",0
same,"Plant response rating, Russian Thistle",[13]; [17],70
same,"Plant response rating, Russian Thistle",[13]; [18],75
same,"Plant response rating, Russian Thistle",[13]; [19],100
same,"Plant response rating, Russian Thistle",[13]; [20],55

# — patent US10597388B2, “Pyridazinone herbicides” (FMC CORPORATION, priority 2014, dated 2020)
